According to ChEMBL document CHEMBL3864153, “Metabolism-based structure optimization: Discovery of a potent and orally available tyrosine kinase ALK inhibitor bearing the tetracyclic benzo[b]carbazolone core” (Bioorg Med Chem Lett, 2016):
Calls of active or inactive are those of the source. No cut-off for these calls is given here.

Tests used:
[1] = biological target: T1, ALK tyrosine kinase receptor (Homo sapiens, UniProt Q9UM73); experiment: Inhibition of recombinant wild type ALK (unknown origin) using poly (Glu,Tyr)4:1 as substrate after 60 mins by ELISA
Target sequence in this assay (Q9UM73 whole entry): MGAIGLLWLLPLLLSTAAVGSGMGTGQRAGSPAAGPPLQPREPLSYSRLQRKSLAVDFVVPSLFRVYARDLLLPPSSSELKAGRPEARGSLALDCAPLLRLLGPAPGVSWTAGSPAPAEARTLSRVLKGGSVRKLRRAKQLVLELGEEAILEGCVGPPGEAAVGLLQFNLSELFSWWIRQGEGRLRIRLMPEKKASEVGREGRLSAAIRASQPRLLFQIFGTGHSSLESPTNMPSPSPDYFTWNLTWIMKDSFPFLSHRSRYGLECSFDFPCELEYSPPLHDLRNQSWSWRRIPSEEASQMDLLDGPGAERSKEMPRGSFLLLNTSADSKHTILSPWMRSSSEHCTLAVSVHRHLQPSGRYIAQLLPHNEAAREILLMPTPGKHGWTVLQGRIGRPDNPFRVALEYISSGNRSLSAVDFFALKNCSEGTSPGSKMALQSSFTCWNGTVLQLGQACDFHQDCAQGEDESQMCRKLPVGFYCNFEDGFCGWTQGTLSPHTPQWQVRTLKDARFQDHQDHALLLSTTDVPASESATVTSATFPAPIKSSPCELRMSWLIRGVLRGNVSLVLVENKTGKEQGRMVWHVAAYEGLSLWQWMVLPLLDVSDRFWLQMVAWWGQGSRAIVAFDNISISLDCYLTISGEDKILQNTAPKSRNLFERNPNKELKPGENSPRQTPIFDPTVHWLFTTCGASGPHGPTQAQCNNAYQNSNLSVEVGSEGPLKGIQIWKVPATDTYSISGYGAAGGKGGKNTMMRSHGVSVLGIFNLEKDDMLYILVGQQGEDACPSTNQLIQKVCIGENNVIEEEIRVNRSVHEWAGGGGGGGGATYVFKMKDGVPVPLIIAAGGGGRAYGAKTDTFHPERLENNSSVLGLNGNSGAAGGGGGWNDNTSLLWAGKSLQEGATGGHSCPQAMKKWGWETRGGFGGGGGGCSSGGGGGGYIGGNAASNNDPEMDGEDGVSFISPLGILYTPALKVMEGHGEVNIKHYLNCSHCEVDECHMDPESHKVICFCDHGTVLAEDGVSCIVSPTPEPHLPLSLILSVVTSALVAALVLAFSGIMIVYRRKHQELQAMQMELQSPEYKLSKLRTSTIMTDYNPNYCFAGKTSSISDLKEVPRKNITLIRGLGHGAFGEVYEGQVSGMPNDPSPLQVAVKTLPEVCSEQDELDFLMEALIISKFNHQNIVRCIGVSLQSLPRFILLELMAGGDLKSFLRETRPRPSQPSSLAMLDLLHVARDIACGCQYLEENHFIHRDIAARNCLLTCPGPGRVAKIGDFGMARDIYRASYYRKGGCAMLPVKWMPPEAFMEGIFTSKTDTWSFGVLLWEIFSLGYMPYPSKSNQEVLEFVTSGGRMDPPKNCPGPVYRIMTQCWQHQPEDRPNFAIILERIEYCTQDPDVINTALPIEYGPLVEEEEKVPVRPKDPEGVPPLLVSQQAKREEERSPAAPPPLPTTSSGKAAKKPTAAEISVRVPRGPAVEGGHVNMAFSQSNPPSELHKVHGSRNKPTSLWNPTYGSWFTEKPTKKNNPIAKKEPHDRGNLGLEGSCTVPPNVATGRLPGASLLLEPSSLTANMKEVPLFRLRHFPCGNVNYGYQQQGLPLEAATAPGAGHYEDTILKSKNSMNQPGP

[2] = Antiproliferative activity against ALK constitutively activated human NCI-H3122 cells at 50 nM after 72 hrs by SRB or CCK8 assay relative to control; assay type: functional; conditions: NCI-H3122, 72 h
[3] = Drug level in rat liver microsomes treated with 9-Ethyl-8-(4-((4-hydroxytetrahydro-2H-pyran-4-yl)methyl)piperazin-1-yl)-6,6-dimethyl-11-oxo-6,11-dihydro-5H-benzo[b]carbazole-3-carbonitrile after 3 hrs; assay type: ADME
[4] = biological target: T1, ALK tyrosine kinase receptor; experiment: Inhibition of ALK phosphorylation in human NCI-H3122 cells after 1 hr by Western blot method; assay type: cell-based
Target sequence in this assay (Q9UM73 19-1620 limits assumed): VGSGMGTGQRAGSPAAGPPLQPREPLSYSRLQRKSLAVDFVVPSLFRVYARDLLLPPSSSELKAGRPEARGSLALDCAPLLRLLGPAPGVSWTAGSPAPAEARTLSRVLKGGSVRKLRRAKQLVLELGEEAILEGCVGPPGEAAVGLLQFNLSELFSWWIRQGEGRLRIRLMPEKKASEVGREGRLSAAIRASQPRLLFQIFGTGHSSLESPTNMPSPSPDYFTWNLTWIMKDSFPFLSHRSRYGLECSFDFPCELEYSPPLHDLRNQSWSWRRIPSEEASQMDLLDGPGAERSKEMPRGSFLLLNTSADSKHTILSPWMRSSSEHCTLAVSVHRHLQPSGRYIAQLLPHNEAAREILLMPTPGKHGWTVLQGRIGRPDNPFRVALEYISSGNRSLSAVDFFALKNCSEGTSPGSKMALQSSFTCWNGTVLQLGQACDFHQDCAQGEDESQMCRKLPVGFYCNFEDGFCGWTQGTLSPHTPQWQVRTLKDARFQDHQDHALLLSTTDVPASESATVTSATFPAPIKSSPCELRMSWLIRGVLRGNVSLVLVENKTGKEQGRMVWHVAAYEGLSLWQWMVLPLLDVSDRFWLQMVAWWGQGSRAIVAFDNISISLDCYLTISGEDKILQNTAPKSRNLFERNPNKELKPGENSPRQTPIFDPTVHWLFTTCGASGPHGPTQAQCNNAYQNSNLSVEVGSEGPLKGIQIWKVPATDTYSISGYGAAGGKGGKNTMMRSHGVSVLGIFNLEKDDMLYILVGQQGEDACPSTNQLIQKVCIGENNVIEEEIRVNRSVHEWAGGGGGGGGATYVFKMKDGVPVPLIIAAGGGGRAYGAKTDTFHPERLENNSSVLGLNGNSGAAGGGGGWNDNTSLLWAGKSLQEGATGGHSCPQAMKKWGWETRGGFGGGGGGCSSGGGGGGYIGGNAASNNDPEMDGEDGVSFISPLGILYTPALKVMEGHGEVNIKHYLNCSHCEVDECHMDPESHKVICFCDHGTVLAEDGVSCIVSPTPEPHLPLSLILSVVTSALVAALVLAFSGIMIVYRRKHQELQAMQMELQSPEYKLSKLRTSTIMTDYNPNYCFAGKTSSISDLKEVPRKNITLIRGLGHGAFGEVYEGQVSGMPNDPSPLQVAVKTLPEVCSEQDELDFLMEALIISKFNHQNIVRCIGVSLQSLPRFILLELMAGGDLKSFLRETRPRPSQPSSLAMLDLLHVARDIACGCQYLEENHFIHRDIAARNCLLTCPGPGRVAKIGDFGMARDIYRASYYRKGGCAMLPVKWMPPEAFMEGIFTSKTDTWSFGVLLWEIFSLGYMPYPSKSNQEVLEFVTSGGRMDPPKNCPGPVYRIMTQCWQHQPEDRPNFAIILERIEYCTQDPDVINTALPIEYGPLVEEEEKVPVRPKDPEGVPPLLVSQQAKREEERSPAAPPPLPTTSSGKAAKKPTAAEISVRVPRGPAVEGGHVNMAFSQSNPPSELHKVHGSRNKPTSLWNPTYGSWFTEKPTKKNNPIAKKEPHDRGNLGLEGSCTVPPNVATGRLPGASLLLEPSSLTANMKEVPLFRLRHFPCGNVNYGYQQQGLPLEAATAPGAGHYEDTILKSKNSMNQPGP

[5] = biological target: T1, ALK tyrosine kinase receptor; experiment: Inhibition of ALK in human NCI-H3122 cells assessed as decrease in STAT3 phosphorylation after 1 hr by Western blot method; assay type: cell-based
Target sequence in this assay (Q9UM73 19-1620 limits assumed): as above

[6] = biological target: T1, ALK tyrosine kinase receptor; experiment: Inhibition of ALK in human NCI-H3122 cells assessed as decrease in Akt phosphorylation after 1 hr by Western blot method; assay type: cell-based
Target sequence in this assay (Q9UM73 19-1620 limits assumed): as above

[7] = biological target: T1, ALK tyrosine kinase receptor; experiment: Inhibition of ALK in human NCI-H3122 cells assessed as decrease in ERK phosphorylation after 1 hr by Western blot method; assay type: cell-based
Target sequence in this assay (Q9UM73 19-1620 limits assumed): as above

KARPAS-299 = experiment: Antitumor activity against human KARPAS299 cells xenografted in nude mouse assessed as tumor regression at 10 to 50 mg/kg, po qd administered for 14 days measured post last dose; assay type: functional, organism-based
[8] = biological target: ALK tyrosine kinase receptor (Homo sapiens, UniProt Q9UM73, L1196M); experiment: Inhibition of recombinant ALK L1196M mutant (unknown origin) using poly (Glu,Tyr)4:1 as substrate after 60 mins by ELISA
[9] = Antiproliferative activity against ALK constitutively activated human NCI-H3122 cells after 72 hrs by SRB or CCK8 assay; conditions: NCI-H3122, 72 h
[10] = Antiproliferative activity against ALK constitutively activated human SU-DHL1 cells after 72 hrs by SRB or CCK8 assay; conditions: SU-DHL-1, 72 h
[11] = Antiproliferative activity against ALK constitutively activated human KARPAS299 cells after 72 hrs by SRB or CCK8 assay; conditions: KARPAS-299, 72 h
[12] = biological target: Voltage-gated inwardly rectifying potassium channel KCNH2 (Homo sapiens, UniProt Q12809); experiment: Inhibition of human ERG
[13] = biological target: Vascular endothelial growth factor receptor 2 (Homo sapiens, UniProt P35968); experiment: Inhibition of recombinant KDR (unknown origin) using poly (Glu,Tyr)4:1 as substrate after 60 mins by ELISA
[14] = biological target: Platelet-derived growth factor receptor alpha (Homo sapiens, UniProt P16234); experiment: Inhibition of recombinant PDGFR-alpha (unknown origin) using poly (Glu,Tyr)4:1 as substrate after 60 mins by ELISA
[15] = biological target: Platelet-derived growth factor receptor beta (Homo sapiens, UniProt P09619); experiment: Inhibition of recombinant PDGFR-beta (unknown origin) using poly (Glu,Tyr)4:1 as substrate after 60 mins by ELISA
[16] = biological target: Insulin-like growth factor 1 receptor (Homo sapiens, UniProt P08069); experiment: Inhibition of recombinant IGF1R (unknown origin) using poly (Glu,Tyr)4:1 as substrate after 60 mins by ELISA
[17] = biological target: Epidermal growth factor receptor (Homo sapiens, UniProt P00533); experiment: Inhibition of recombinant EGFR (unknown origin) using poly (Glu,Tyr)4:1 as substrate after 60 mins by ELISA
[18] = biological target: Receptor tyrosine-protein kinase erbB-2 (Homo sapiens, UniProt P04626); experiment: Inhibition of recombinant ErbB2 (unknown origin) using poly (Glu,Tyr)4:1 as substrate after 60 mins by ELISA
[19] = biological target: Receptor tyrosine-protein kinase erbB-4 (Homo sapiens, UniProt Q15303); experiment: Inhibition of recombinant ErbB4 (unknown origin) using poly (Glu,Tyr)4:1 as substrate after 60 mins by ELISA
[20] = biological target: Tyrosine-protein kinase ABL1 (Homo sapiens, UniProt P00519); experiment: Inhibition of recombinant ABL (unknown origin) using poly (Glu,Tyr)4:1 as substrate after 60 mins by ELISA
Ephrin type-A receptor 2 = Ephrin type-A receptor 2 (Homo sapiens, UniProt P29317); experiment: Inhibition of recombinant EPHA2 (unknown origin) using poly (Glu,Tyr)4:1 as substrate after 60 mins by ELISA
[21] = biological target: Proto-oncogene tyrosine-protein kinase Src (Homo sapiens, UniProt P12931); experiment: Inhibition of recombinant c-Src (unknown origin) using poly (Glu,Tyr)4:1 as substrate after 60 mins by ELISA
[22] = biological target: Mast/stem cell growth factor receptor Kit (Homo sapiens, UniProt P10721); experiment: Inhibition of recombinant c-Kit (unknown origin) using poly (Glu,Tyr)4:1 as substrate after 60 mins by ELISA
[23] = Half life in Sprague-Dawley rat at 5 mg/kg, iv; assay type: ADME, organism-based; conditions: in vivo
[24] = AUC (0 to infinity) in Sprague-Dawley rat at 5 mg/kg, iv; assay type: ADME, organism-based; parameters: dose 5 mg/kg, time infinity, route intravenous; conditions: in vivo
[25] = Volume of distribution in Sprague-Dawley rat at 5 mg/kg, iv; assay type: ADME, organism-based; conditions: in vivo
[26] = Clearance in Sprague-Dawley rat at 5 mg/kg, iv; assay type: ADME, organism-based; conditions: in vivo
[27] = Cmax in Sprague-Dawley rat at 10 mg/kg, po; assay type: ADME, organism-based; parameters: dose 10 mg/kg, route oral; conditions: in vivo
[28] = Tmax in Sprague-Dawley rat at 10 mg/kg, po; assay type: ADME, organism-based; conditions: in vivo
[29] = AUC (0 to infinity) in Sprague-Dawley rat at 10 mg/kg, po; assay type: ADME, organism-based; parameters: dose 10 mg/kg, time infinity, route oral; conditions: in vivo
[30] = Oral bioavailability in Sprague-Dawley rat at 10 mg/kg; assay type: ADME, organism-based; conditions: in vivo
[31] = Antitumor activity against human KARPAS299 cells xenografted in nude mouse assessed as tumor growth inhibition at 50 mg/kg, po qd administered for 14 days measured twice per week during compound dosing relative to vehicle-treated control; assay type: functional; conditions: KARPAS-299, po, 336 h, read-out: TGI
[32] = Antitumor activity against human KARPAS299 cells xenografted in nude mouse assessed as tumor growth inhibition at 10 mg/kg, po qd administered for 14 days measured twice per week during compound dosing relative to vehicle-treated control; assay type: functional; conditions: KARPAS-299, po, 336 h, read-out: TGI
Mus musculus = experiment: Toxicity in nude mouse xenografted with human KARPAS299 cells assessed as body weight loss at 10 to 50 mg/kg, po qd administered for 14 days; assay type: organism-based, KARPAS-299; conditions: in vivo, 336 h
[33] = Antitumor activity against human KARPAS299 cells xenografted in nude mouse assessed as tumor growth inhibition at 20 mg/kg, po qd administered for 14 days measured twice per week during compound dosing relative to vehicle-treated control; assay type: functional; conditions: KARPAS-299, po, 336 h, read-out: TGI
[34] = Antiproliferative activity against ALK constitutively activated human NCI-H3122 cells at 10 nM after 72 hrs by SRB or CCK8 assay relative to control; assay type: functional; conditions: NCI-H3122, 72 h

Voltage-gated inwardly rectifying potassium channel KCNH2, sequence (Q12809 whole entry): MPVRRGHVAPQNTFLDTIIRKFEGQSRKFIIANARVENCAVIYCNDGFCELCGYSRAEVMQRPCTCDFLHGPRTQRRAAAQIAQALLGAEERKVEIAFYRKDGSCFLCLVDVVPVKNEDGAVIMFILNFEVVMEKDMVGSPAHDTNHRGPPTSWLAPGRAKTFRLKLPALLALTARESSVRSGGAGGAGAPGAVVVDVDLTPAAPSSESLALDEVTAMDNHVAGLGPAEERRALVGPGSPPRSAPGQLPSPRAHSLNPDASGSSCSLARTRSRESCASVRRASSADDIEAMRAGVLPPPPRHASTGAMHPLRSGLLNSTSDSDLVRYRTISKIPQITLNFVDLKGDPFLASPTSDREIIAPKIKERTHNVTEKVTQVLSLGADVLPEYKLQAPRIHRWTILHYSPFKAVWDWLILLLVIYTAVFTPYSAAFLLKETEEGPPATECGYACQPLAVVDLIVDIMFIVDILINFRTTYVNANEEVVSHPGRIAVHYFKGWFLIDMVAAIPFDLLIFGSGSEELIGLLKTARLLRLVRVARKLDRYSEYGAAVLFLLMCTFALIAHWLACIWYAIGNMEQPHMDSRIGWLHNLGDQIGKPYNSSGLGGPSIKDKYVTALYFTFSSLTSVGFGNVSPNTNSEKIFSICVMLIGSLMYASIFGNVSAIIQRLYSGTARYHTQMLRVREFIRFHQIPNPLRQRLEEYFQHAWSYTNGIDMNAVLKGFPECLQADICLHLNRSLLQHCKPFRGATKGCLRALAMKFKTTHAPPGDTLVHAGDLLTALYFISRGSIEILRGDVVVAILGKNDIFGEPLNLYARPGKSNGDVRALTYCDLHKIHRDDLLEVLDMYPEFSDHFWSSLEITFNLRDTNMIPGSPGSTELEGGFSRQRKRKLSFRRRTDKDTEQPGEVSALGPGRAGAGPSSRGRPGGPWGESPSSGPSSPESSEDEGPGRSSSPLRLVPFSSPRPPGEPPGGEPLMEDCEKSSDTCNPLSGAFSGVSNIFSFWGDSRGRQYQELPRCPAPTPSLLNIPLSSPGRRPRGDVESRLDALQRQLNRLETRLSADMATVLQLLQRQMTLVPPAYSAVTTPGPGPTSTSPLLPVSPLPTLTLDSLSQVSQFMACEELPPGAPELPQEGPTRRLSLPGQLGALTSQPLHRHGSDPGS
Proto-oncogene tyrosine-protein kinase Src, sequence (P12931 2-536 limits assumed): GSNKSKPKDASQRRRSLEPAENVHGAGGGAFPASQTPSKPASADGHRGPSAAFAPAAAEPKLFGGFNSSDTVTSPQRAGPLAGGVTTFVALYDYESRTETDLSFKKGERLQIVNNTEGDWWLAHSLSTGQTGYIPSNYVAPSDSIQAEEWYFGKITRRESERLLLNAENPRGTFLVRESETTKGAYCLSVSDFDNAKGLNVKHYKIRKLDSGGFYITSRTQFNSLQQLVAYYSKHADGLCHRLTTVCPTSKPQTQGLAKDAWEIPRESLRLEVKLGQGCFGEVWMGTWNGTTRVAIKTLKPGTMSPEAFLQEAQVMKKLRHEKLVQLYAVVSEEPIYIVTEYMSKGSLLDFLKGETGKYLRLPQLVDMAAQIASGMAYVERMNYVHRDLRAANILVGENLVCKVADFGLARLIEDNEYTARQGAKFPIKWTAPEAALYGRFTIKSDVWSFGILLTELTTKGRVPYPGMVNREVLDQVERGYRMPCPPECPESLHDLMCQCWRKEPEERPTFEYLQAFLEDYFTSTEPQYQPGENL
ALK tyrosine kinase receptor (Homo sapiens, UniProt Q9UM73, L1196M), sequence (Q9UM73 19-1620 L1196M limits assumed): as the sequence (Q9UM73 19-1620 limits assumed) above, with L1178M counted along it

With `CCc1cc2c(cc1N1CCN(CC(O)(CCC(=O)O)CC(=O)O)CC1)C(C)(C)c1[nH]c3cc(C#N)ccc3c1C2=O` (stereo not given) the IC50 [1] was 0.0171 µM, the inhibition at 0.05 µM [2] was 3% and the Drug metabolism [3] was “Metabolite_Detected”.

In the case of `CCc1cc2c(cc1N1CCN(CC3(O)CCOCC3)CC1)C(C)(C)c1[nH]c3cc(C#N)ccc3c1C2=O` [listing 1 of 2 here], the inhibition [4] is reported as “Dose-dependent effect”, the inhibition [5] is reported as “Dose-dependent effect” and the inhibition [6] is reported as “Dose-dependent effect”. For the same compound, the inhibition [7] was “Dose-dependent effect” and the Activity (KARPAS-299) was “Active”.

With `CCc1cc2c(cc1N1CCN(CC3(O)CCOCC3)CC1)C(C)(C)c1[nH]c3cc(C#N)ccc3c1C2=O` [listing 2 of 2 here] the IC50 [1] was 0.0015 µM, the IC50 [8] was 0.0042 µM and the IC50 [9] was 0.0244 µM. The inhibition at 0.05 µM [2] was 80%, the IC50 [10] was 0.0167 µM and the IC50 [11] was 0.0226 µM. The IC50 [12] was 30 to 33.4 µM, the IC50 [13] was > 1 µM and the IC50 [14] was > 1 µM. For the same compound, the IC50 [15] was > 1 µM, the IC50 [16] was > 1 µM and the IC50 [17] was > 1 µM. For the same compound, the IC50 [18] was > 1 µM, the IC50 [19] was > 1 µM and the IC50 [20] was > 1 µM. The IC50 (Ephrin type-A receptor 2) was > 1 µM, the IC50 [21] was > 1 µM and the IC50 [22] was > 1 µM. It also gave a half-life [23] of 5.5 h, an AUC(0-inf) [24] of 6.64 µg·h/mL and a Vd [25] of 5 L/kg. It also gave a clearance [26] of 0.73 L/h/kg, a Cmax [27] of 0.867 µg/mL and a Tmax [28] of 4 h. The AUC(0-inf) [29] was 11.7 µg·h/mL and the bioavailability [30] was 105%.

In the case of `CC1(C)c2cc(C3CCN(CC4(O)CCOCC4)CC3)ccc2C(=O)c2c1[nH]c1cc(C#N)ccc21`, the IC50 [12] is reported as > 12.3 µM.

In the case of `CCc1cc2c(cc1N1CCN(CC3(O)CCOCC3)CC1)C(C)(C)c1[nH]c3cc(C#N)ccc3c1C2=O.Cl`, the inhibition in vivo at 50 mg/kg [31] is reported as 110%, the inhibition in vivo at 10 mg/kg [32] is reported as 110% and the Activity (Mus musculus) is reported as “Non-Toxic”. For the same compound, the inhibition in vivo at 20 mg/kg [33] was > 100%.

With `CCc1cc2c(cc1N1CCN(CC3(O)CCNCC3)CC1)C(C)(C)c1[nH]c3cc(C#N)ccc3c1C2=O` the IC50 [1] was 0.0014 µM and the inhibition at 0.05 µM [2] was 5%.

With `CC1(C)c2cc(C3CCN(CC4CCOCC4)CC3)ccc2C(=O)c2c1[nH]c1cc(C#N)ccc21` the IC50 [12] was 2.65 µM.

Work on `CCc1cc2c(cc1N1CCN(CC3(O)CC(C)OC(C)C3)CC1)C(C)(C)c1[nH]c3cc(C#N)ccc3c1C2=O` (stereo not given) yielded an IC50 [1] of 0.0024 µM and an inhibition at 0.01 µM [34] of 40%.

With `C[C@@H](Oc1cc(-c2cnn(C3CCNCC3)c2)cnc1N)c1c(Cl)ccc(F)c1Cl` [CRIZOTINIB] the IC50 [9] was 0.101 µM, the IC50 [10] was 0.0923 µM and the IC50 [11] was 0.105 µM. The inhibition in vivo at 50 mg/kg [31] was 109%.

Work on `CCc1cc2c(cc1N1CCN(CC3(O)CCCCC3)CC1)C(C)(C)c1[nH]c3cc(C#N)ccc3c1C2=O` yielded an IC50 [1] of 0.007 µM and an inhibition at 0.05 µM [2] of 40%.
